Test results: US10111854B2, “Synthesis and use of amine-containing flavonoids as potent anti-leishmanial agents” (The Hong Kong Polytechnic University, priority 2014, dated 2018)
Where a name gives a salt, the structure may show the parent alone.

How the values were obtained:
[1] = system: mouse fibroblast (L929); test: Cytotoxicity, L929 fibroblasts; assay type: cell-based; conditions: mouse fibroblast L929
Method: IC50 values of known antileishmanials and the amine-containing flavonoid monomers of the present invention to promastigotes (L. amazonensis LV78, L major FV1, L. donovani HU3, L. donovani 39), macrophages (Raw 264.7 and PEM) and mouse fibroblast (L929) were determined. The anti-promastigotes activities and cytotoxicity of the amine-containing flavonoid monomers of the invention are shown in Table 1.

[2] = system: L. amazonensis LV78 promastigotes; test: Anti-promastigote activity (MTS assay), L. amazonensis LV78; assay type: cell-based; conditions: 72 hours
Outline: (§1)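 Promastigotes (1×10^5 per well) in Schneider's medium pH 6.9 with 10% FBS, exposed to serial compound concentrations for 72 h at 27 °C. Viability by MTS/PMS reduction over 4 h, OD 490 nm; IC50 derived.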

[3] = system: peritoneal elicited macrophages (PEM); test: Cytotoxicity, peritoneal elicited macrophages (PEM); assay type: cell-based, mouse
[4] = system: L. major FV1 promastigotes; test: Anti-promastigote activity (MTS assay), L. major FV1; assay type: cell-based; conditions: 72 hours
Outline: as §1

[5] = system: L. amazonensis LV78 amastigotes; test: Anti-amastigote activity in infected PEM, L. amazonensis LV78; assay type: cell-based; conditions: infected PEM, 3 days, Giemsa
Outline: (§2)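 Mouse peritoneal elicited macrophages on cover slips, infected overnight at 37 °C with late-log promastigotes at 20:1 parasite:macrophage, were washed and exposed to compound for 72 h at 37 °C. Giemsa staining gave percent infected macrophages and amastigotes per 100 macrophages, from which IC50 was calculated.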

[6] = system: L. donovani Ld39 promastigotes; test: Anti-promastigote activity (MTS assay), L. donovani Ld39; assay type: cell-based; conditions: 72 hours
Outline: as §1

[7] = system: L. donovani HU3 promastigotes; test: Anti-promastigote activity (MTS assay), L. donovani HU3; assay type: cell-based; conditions: 72 hours
Outline: as §1

[8] = system: L. donovani HU3 amastigotes; test: Anti-amastigote activity in infected PEM, L. donovani HU3; assay type: cell-based; conditions: infected PEM, 3 days, Giemsa; SSG-sensitive
Outline: as §2

| SMILES | IC50 [1] [µM] | IC50 [2] [nM] | IC50 [3] [µM] | IC50 [4] [µM] | IC50 [5] [nM] | IC50 [6] [nM] | IC50 [7] [nM] | IC50 [8] [nM] |
| --- | --- | --- | --- | --- | --- | --- | --- | --- |
| O=c1cc(-c2ccc(OCCN3CCN(Cc4ccncc4)CC3)cc2)oc2ccccc12 [FM01.HCl] | 33.7 | 12600 ± 900 | 55.9 | 6.7 ± 1.9 | > 9000 | 1300 ± 300 |  |  |
| O=c1cc(-c2ccc(OCCOCCN(Cc3ncccc3F)Cc3ncccc3F)cc2)oc2ccccc12 [FM09c.HCl] | 39 ± 6.1 | 2660 ± 300 |  |  | 1450 ± 310 |  | 4970 ± 1040 | 2900 ± 1490 |
| O=c1cc(-c2ccc(OCCOCCN(Cc3ccccn3)Cc3ccccn3)cc2)oc2ccccc12 [FM09.HCl] | 20.2 ± 8.4 | 700 |  | 1.2 ± 0.3 | 400 | 500 ± 100 | 200 ± 100 | 1800 |
